According to patent publication US20250320205A1, “STAT6 DEGRADERS” (Gilead Sciences, Inc., priority 2024, published 2025):

Experiments:
STAT6 = target: T1, STAT6 (Homo sapiens, UniProt P42226); assay: STAT6 Degrader Assay (HiBiT based, HeLa LgBiT clone 4.14 cells); type: cell-based; conditions: geometric mean across assay runs and compound batches; DC50 provided for test compounds with >80% Emax; read-out: STAT6 degradation DC50
T1 construct: These cells express endogenous STAT6; host or cells: HeLa LgBiT clone 4.14 (CRISPR knock-in of HiBiT into the endogenous STAT6 gene)
T1 sequence (P42226 1-847): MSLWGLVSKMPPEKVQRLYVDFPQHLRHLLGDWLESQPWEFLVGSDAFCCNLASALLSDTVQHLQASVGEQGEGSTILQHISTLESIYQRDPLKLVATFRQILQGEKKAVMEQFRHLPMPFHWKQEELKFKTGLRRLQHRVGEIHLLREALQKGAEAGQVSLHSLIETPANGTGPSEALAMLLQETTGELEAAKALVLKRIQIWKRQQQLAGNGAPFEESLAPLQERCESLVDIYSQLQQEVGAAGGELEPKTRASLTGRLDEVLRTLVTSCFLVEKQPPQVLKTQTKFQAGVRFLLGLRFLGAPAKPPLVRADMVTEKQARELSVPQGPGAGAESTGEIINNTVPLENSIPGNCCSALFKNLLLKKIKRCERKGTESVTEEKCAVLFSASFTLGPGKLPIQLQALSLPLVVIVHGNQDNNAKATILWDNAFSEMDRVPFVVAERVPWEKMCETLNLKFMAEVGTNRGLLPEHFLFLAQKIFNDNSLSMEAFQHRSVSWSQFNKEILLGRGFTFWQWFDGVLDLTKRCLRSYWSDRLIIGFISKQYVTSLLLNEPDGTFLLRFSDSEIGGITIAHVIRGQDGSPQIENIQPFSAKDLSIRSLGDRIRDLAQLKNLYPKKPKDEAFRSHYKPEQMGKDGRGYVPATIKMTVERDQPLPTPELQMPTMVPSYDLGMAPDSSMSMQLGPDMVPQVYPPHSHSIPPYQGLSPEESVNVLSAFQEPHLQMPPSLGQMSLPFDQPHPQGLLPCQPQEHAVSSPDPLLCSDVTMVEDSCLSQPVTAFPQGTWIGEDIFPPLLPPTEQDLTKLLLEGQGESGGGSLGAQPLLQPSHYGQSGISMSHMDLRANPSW
Outline: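 HeLa LgBiT clone 4.14 with CRISPR HiBiT-tagged endogenous STAT6, 5000 cells/well, compound exposure 4-24 h at 37° C. Residual STAT6 read as Nano-Glo luminescence after 0.5 h. 50 μM terfenadine set 100% degradation; DC50 in nM.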

[1] = system: Eotaxin-3 (CCL26) release; assay: Human Whole Blood Eotaxin-3 Assay (IL-4 stimulated); type: cell-based; conditions: Homo sapiens; geometric mean across assay runs and compound batches; EC50 provided for test compounds with >80% Emax
Outline: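 Lithium-heparin human whole blood preincubated 2 h at 37 °C with compounds (4-fold dilutions, triplicate, 0.5% DMSO final). Then stimulated with 400 pM final recombinant human IL-4 for 48 h. Eotaxin-3 in supernatant quantified by MSD immunoassay.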

Row | DC50 (STAT6) [µM] | EC50 [1] [µM] | SMILES
1 | 0.0088 | 0.0131 | CNc1ccn(-c2ccnc3c2cc([C@@H](C)N2CC=C(c4c(F)cc(C(=O)N5CCn6nc(CN7CCC(c8ccc(NC9CCC(=O)NC9=O)cc8F)CC7)cc6C5)cc4F)CC2)n3C)c(=O)c1 (stereo partly drawn) [Example 2g103, 3-((4-(1-((5-(3,5-difluoro-4-(1-((R)-1-(1-methyl-4-(4-(methylamino)-2-oxopyridin-1(2H)-yl)-1H-pyrrolo[2,3-b]pyridin-2-yl)ethyl)-1,2,3,6-tetrahydropyridin-4-yl)benzo-yl)-4,5,6,7-tetrahydropyrazolo [1,5-a]pyrazin-2-yl)methyl)-piperidin-4-yl)-3-fluorophen-yl)amino)piperidine-2,6-dione]
2 | 0.0105 | 0.0233 | CNc1ccn(-c2ccnc3c2cc([C@@H](C)N2CCC(c4c(F)cc(C(=O)N5CCn6nc(CN7CCC(c8ccc(NC9CCC(=O)NC9=O)cc8F)CC7)cc6C5)cc4F)CC2)n3C)c(=O)c1 (stereo partly drawn) [Example 2g110, 3-((4-(1-((5-(3,5-difluoro-4-(1-((R)-1-(1-methyl-4-(4-(methylamino)-2-oxopyridin-1(2H)-yl)-1H-pyrrolo[2,3-b]pyridin-2-yl)ethyl)piperidin-4-yl)benzoyl)-4,5,6,7-tetra-hydropyrazolo[1,5-a]pyrazin-2-yl)methyl)piperidin-4-yl)-3-fluorophenyl)amino)piperi-dine-2,6-dione]
